Experimental data as given in PubChem BioAssay (NCI).
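At the GI50, growth is halved. TGI is the concentration that stops growth completely.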

Tests used:
Test in all cases: growth of human tumour cells (NCI), 384-well format; in the data active = GI50 below about 0.43 µM; inactive = the rest
MCF7 breast = test system: MCF7 breast
NCI-H226 lung = test system: NCI-H226 lung
ACHN renal = test system: ACHN renal
SNB-19 CNS = test system: SNB-19 CNS
CAKI-1 renal = test system: CAKI-1 renal
MDA-MB-435 melanoma = test system: MDA-MB-435 melanoma
BT-549 breast = test system: BT-549 breast
OVCAR-8 ovarian = test system: OVCAR-8 ovarian
SK-OV-3 ovarian = test system: SK-OV-3 ovarian
MDA-MB-468 breast = test system: MDA-MB-468 breast
MDA-MB-231 breast = test system: MDA-MB-231 breast
M14 melanoma = test system: M14 melanoma
UACC-257 melanoma = test system: UACC-257 melanoma
SF-268 CNS = test system: SF-268 CNS
NCI-H322M lung = test system: NCI-H322M lung
HS 578T breast = test system: HS 578T breast
RXF 393 renal = test system: RXF 393 renal
HCT-116 colon = test system: HCT-116 colon
SN12C renal = test system: SN12C renal
OVCAR-3 ovarian = test system: OVCAR-3 ovarian
RPMI-8226 leukemia = test system: RPMI-8226 leukemia
KM12 colon = test system: KM12 colon
DU-145 prostate = test system: DU-145 prostate
HT29 colon = test system: HT29 colon
HL-60(TB) leukemia = test system: HL-60(TB) leukemia
SK-MEL-28 melanoma = test system: SK-MEL-28 melanoma
HOP-92 NSCLC = test system: HOP-92 NSCLC
SNB-75 CNS = test system: SNB-75 CNS
T-47D breast = test system: T-47D breast
COLO 205 colon = test system: COLO 205 colon
EKVX NSCLC = test system: EKVX NSCLC
NCI/ADR-RES ovarian = test system: NCI/ADR-RES ovarian
MOLT-4 leukemia = test system: MOLT-4 leukemia
HCT-15 colon = test system: HCT-15 colon
SF-539 CNS = test system: SF-539 CNS
MALME-3M melanoma = test system: MALME-3M melanoma
NCI-H522 lung = test system: NCI-H522 lung
TK-10 renal = test system: TK-10 renal
OVCAR-4 ovarian = test system: OVCAR-4 ovarian
SR leukemia = test system: SR leukemia
SK-MEL-5 melanoma = test system: SK-MEL-5 melanoma
PC-3 prostate = test system: PC-3 prostate
A498 renal = test system: A498 renal
HOP-62 NSCLC = test system: HOP-62 NSCLC
OVCAR-5 ovarian = test system: OVCAR-5 ovarian
NCI-H23 lung = test system: NCI-H23 lung
UACC-62 melanoma = test system: UACC-62 melanoma
LOX IMVI melanoma = test system: LOX IMVI melanoma
HCC-2998 colon = test system: HCC-2998 colon
U251 glioblastoma = test system: U251 glioblastoma
A549 NSCLC = test system: A549 NSCLC
NCI-H460 NSCLC = test system: NCI-H460 NSCLC
IGROV1 ovarian = test system: IGROV1 ovarian
SF-295 CNS = test system: SF-295 CNS

CCc1c[nH]c2ncnc(N3CC[C@@](N)(CNC(=O)c4ccc(F)cc4F)C3)c12
37 µM: TGI (UACC-257 melanoma)
0.816 µM: TGI (SR leukemia)
39.9 µM: TGI (NCI-H23 lung)
24.9 µM: TGI (BT-549 breast)
42.8 µM: TGI (TK-10 renal)
33.7 µM: TGI (HS 578T breast)
50.7 µM: TGI (A549 NSCLC)
32.4 µM: TGI (IGROV1 ovarian)
> 100 µM: TGI (MCF7 breast) | TGI (NCI-H226 lung) | TGI (SNB-19 CNS) | TGI (CAKI-1 renal) | TGI (MDA-MB-435 melanoma) | TGI (OVCAR-8 ovarian) | TGI (SK-OV-3 ovarian) | TGI (MDA-MB-231 breast) | TGI (M14 melanoma) | TGI (SF-268 CNS) | TGI (RXF 393 renal) | TGI (HCT-116 colon) | TGI (OVCAR-3 ovarian) | TGI (KM12 colon) | TGI (HT29 colon) | TGI (SK-MEL-28 melanoma) | TGI (HOP-92 NSCLC) | TGI (SNB-75 CNS) | TGI (T-47D breast) | TGI (EKVX NSCLC) | TGI (NCI/ADR-RES ovarian) | TGI (HCT-15 colon) | TGI (SF-539 CNS) | TGI (OVCAR-4 ovarian) | TGI (PC-3 prostate) | TGI (HCC-2998 colon) | TGI (U251 glioblastoma) | TGI (NCI-H460 NSCLC) | TGI (SF-295 CNS)
50 µM: TGI (ACHN renal)
76 µM: TGI (OVCAR-5 ovarian)
28.4 µM: TGI (SK-MEL-5 melanoma)
29.4 µM: TGI (HL-60(TB) leukemia)
inactive: GI50 (MCF7 breast) 12.7 µM | GI50 (NCI-H226 lung) 20.2 µM | GI50 (ACHN renal) 15.5 µM | GI50 (SNB-19 CNS) 61.9 µM | GI50 (CAKI-1 renal) 16.5 µM | GI50 (MDA-MB-435 melanoma) 31.4 µM | GI50 (BT-549 breast) 10.9 µM | GI50 (OVCAR-8 ovarian) 41.3 µM | GI50 (SK-OV-3 ovarian) 13.6 µM | GI50 (MDA-MB-468 breast) 13.9 µM | GI50 (MDA-MB-231 breast) 35.6 µM | GI50 (M14 melanoma) 28.4 µM | GI50 (UACC-257 melanoma) 16.5 µM | GI50 (SF-268 CNS) 48.3 µM | GI50 (NCI-H322M lung) 22 µM | GI50 (HS 578T breast) 14.9 µM | GI50 (RXF 393 renal) 27.8 µM | GI50 (HCT-116 colon) 20.5 µM | GI50 (SN12C renal) 23.3 µM | GI50 (OVCAR-3 ovarian) 33.8 µM | GI50 (RPMI-8226 leukemia) 14.2 µM | GI50 (KM12 colon) 4.05 µM | GI50 (DU-145 prostate) 23.2 µM | GI50 (HT29 colon) 29.1 µM | GI50 (HL-60(TB) leukemia) 15.7 µM | GI50 (SK-MEL-28 melanoma) 25.5 µM | GI50 (HOP-92 NSCLC) 28.6 µM | GI50 (SNB-75 CNS) 31.3 µM | GI50 (T-47D breast) 35.3 µM | GI50 (COLO 205 colon) 15.8 µM | GI50 (EKVX NSCLC) 28.6 µM | GI50 (NCI/ADR-RES ovarian) 89 µM | GI50 (MOLT-4 leukemia) 5.23 µM | GI50 (HCT-15 colon) 32 µM | GI50 (SF-539 CNS) 11.9 µM | GI50 (MALME-3M melanoma) 14.2 µM | GI50 (NCI-H522 lung) 16.8 µM | GI50 (TK-10 renal) 13.5 µM | GI50 (OVCAR-4 ovarian) > 100 µM | GI50 (SK-MEL-5 melanoma) 11 µM | GI50 (PC-3 prostate) 22.1 µM | GI50 (A498 renal) 2.72 µM | GI50 (HOP-62 NSCLC) 20 µM | GI50 (OVCAR-5 ovarian) 17.1 µM | GI50 (NCI-H23 lung) 14.5 µM | GI50 (UACC-62 melanoma) 18.9 µM | GI50 (LOX IMVI melanoma) 18.9 µM | GI50 (HCC-2998 colon) 18.8 µM | GI50 (U251 glioblastoma) 37.4 µM | GI50 (A549 NSCLC) 20.8 µM | GI50 (NCI-H460 NSCLC) 11.3 µM | GI50 (IGROV1 ovarian) 6.09 µM | GI50 (SF-295 CNS) 29.1 µM
20.3 µM: TGI (MOLT-4 leukemia)
47.4 µM: TGI (NCI-H522 lung)
19.3 µM: TGI (A498 renal)
94.1 µM: TGI (DU-145 prostate)
59.2 µM: TGI (UACC-62 melanoma)
79.4 µM: TGI (NCI-H322M lung)
47.3 µM: TGI (LOX IMVI melanoma)
37.5 µM: TGI (MALME-3M melanoma)
54.7 µM: TGI (RPMI-8226 leukemia)
41.5 µM: TGI (COLO 205 colon)
55.5 µM: TGI (MDA-MB-468 breast)
93 µM: TGI (HOP-62 NSCLC)
88.5 µM: TGI (SN12C renal)
